Measured values reported in patent US10125111B2, “Benzofuran compounds for the treatment of hepatitis C” (BRISTOL-MYERS SQUIBB COMPANY, priority 2015, dated 2018).
Where two headings read alike, the source gives them in different places.

System: genotype 1b (Con-1) HCV replicon
Assay: HCV Replicon Luciferase Assay
Format: cell-based
Conditions: Hepatitis C virus, 72 h, Huh-7 genotype 1b replicon, Renilla luciferase, 3 days incubation
Experimental: The cell lines used to evaluate compounds consist of a human hepatocyte derived cell line (Huh-7) that constitutively expresses a genotype 1b (Con-1) HCV replicon or a genotype 1b (Con-1) HCV replicon with an asparagine replacing the cysteine at amino acid 316, or a genotype 2a (JFH-1) replicon, containing a Renilla luciferase reporter gene. These cells were maintained in Dulbecco's modified Eagle medium (DMEM) containing 10% FBS, 100 U/mL penicillin/streptomycin and 1.0 mg/mL G418.
To evaluate compound efficacy, titrated compounds were transferred to sterile 384-well tissue culture treated plates, and the plates were seeded with HCV replicon cells (50 μL at a density of 2.4×10^3 cells/well) in DMEM containing 4% FBS (final DMSO concentration at 0.5%). After 3 days incubation at 37° C., cells were analyzed for Renilla Luciferase activity using the EnduRen substrate (Promega cat #E6485) according to the manufacturer's directions. Briefly, the EnduRen substrate was diluted in DMEM and then added to the plates to a final concentration of 7.5 μM. The plates were incubated for at least 1 h at 37° C. then read on a Viewlux Imager (PerkinElmer) using a luminescence program. The 50% effective concentration (EC50) was calculated using the four-parameter logistic Formula noted above.
Compound EC50 data is expressed as A: <100 nM; B=100-1000 nM; C>1000 nM).

Row | SMILES | EC50 (read-out: EC50 1b (class)) | EC50 (read-out: EC50 (uM) 1b)
1 | CCCC1CN(C(=O)c2ccccc2)CCN1C(=O)c1cccc(-c2cc3c(C(=O)NC)c(-c4ccc(F)cc4)oc3cc2N(CCF)S(C)(=O)=O)c1 (stereo not drawn) [Compound 3043] | < 0.1 µM | 
2 | CNC(=O)c1c(-c2ccc(F)cc2)oc2cc(N(CCF)S(C)(=O)=O)c(-c3cccc(C(=O)N4CCN(C(=O)OC(C)(C)C)CC4(C)C)c3)cc12 [Compound 3044] | < 0.1 µM | 
3 | CNC(=O)c1c(-c2ccc(F)cc2)oc2cc(N(CCCF)S(C)(=O)=O)c(-c3cccc(C(=O)O)c3)cc12 [Compound 4002] | > 1 µM | 
4 | CNC(=O)c1c(-c2ccc(F)cc2)oc2cc(N(CCCF)S(C)(=O)=O)c(-c3cccc(C(=O)NC(C)C(F)(F)F)c3)cc12 (stereo not drawn) [Compound 4003] | < 0.1 µM | 0.0093 µM
5 | CNC(=O)c1c(-c2ccc(F)cc2)oc2cc(N(CCCF)S(C)(=O)=O)c(-c3cccc(C(=O)NC(CF)(CF)CF)c3)cc12 [Compound 4004] | < 0.1 µM | 
6 | CNC(=O)c1c(-c2ccc(F)cc2)oc2cc(N(CCCF)S(C)(=O)=O)c(-c3cccc(C(=O)NC(C)(C)C(F)(F)F)c3)cc12 [Compound 4005] | < 0.1 µM | 
7 | [2H]C([2H])([2H])C(NC(=O)c1cccc(-c2cc3c(C(=O)NC)c(-c4ccc(F)cc4)oc3cc2N(CCCF)S(C)(=O)=O)c1)(C([2H])([2H])[2H])C([2H])([2H])[2H] [Compound 4006] | < 0.1 µM | 
8 | CNC(=O)c1c(-c2ccc(F)cc2)oc2cc(N(CCCF)S(C)(=O)=O)c(-c3cccc(C(=O)NCC(F)(F)C(F)(F)F)c3)cc12 [Compound 4007] | < 0.1 µM | 0.0053 µM
9 | CNC(=O)c1c(-c2ccc(F)cc2)oc2cc(N(CCCF)S(C)(=O)=O)c(-c3cccc(C(=O)NC(C)(C)CF)c3)cc12 [Compound 4008] | < 0.1 µM | 
10 | CNC(=O)c1c(-c2ccc(F)cc2)oc2cc(N(CCCF)S(C)(=O)=O)c(-c3cccc(C(=O)NCC(C)(C)C)c3)cc12 [Compound 4009] | < 0.1 µM | 
11 | CNC(=O)c1c(-c2ccc(F)cc2)oc2cc(N(CCCF)S(C)(=O)=O)c(-c3cccc(C(=O)NCC(F)(F)F)c3)cc12 [Compound 4010] | < 0.1 µM | 
12 | CNC(=O)c1c(-c2ccc(F)cc2)oc2cc(N(CCCF)S(C)(=O)=O)c(-c3cccc(C(=O)NC(C)(C)C)c3)cc12 [Compound 4011] | < 0.1 µM | 
13 | C#CC(C)(C)NC(=O)c1cccc(-c2cc3c(C(=O)NC)c(-c4ccc(F)cc4)oc3cc2N(CCCF)S(C)(=O)=O)c1 [Compound 4012] | < 0.1 µM | 0.008 µM
14 | CNC(=O)c1c(-c2ccc(F)cc2)oc2cc(N(CCCF)S(C)(=O)=O)c(-c3cccc(C(=O)NC(C)(C)C(=O)OC)c3)cc12 [Compound 4013] | < 0.1 µM | 
15 | CNC(=O)c1c(-c2ccc(F)cc2)oc2cc(N(CCCF)S(C)(=O)=O)c(-c3cccc(C(=O)NC4(C#N)CC4)c3)cc12 [Compound 4014] | < 0.1 µM | 
16 | CNC(=O)c1c(-c2ccc(F)cc2)oc2cc(N(CCCF)S(C)(=O)=O)c(-c3cccc(C(=O)NCC(C)C)c3)cc12 [Compound 4015] | < 0.1 µM | 0.0075 µM
17 | CNC(=O)c1c(-c2ccc(F)cc2)oc2cc(N(CCCF)S(C)(=O)=O)c(-c3cccc(C(=O)NC4(C)CC4)c3)cc12 [Compound 4016] | < 0.1 µM | 
18 | CNC(=O)c1c(-c2ccc(F)cc2)oc2cc(N(CCCF)S(C)(=O)=O)c(-c3cccc(C(=O)NCC(C)(C)CO)c3)cc12 [Compound 4017] | < 0.1 µM | 
19 | CNC(=O)c1c(-c2ccc(F)cc2)oc2cc(N(CCCF)S(C)(=O)=O)c(-c3cccc(C(=O)NC(C)(C)CO)c3)cc12 [Compound 4018] | < 0.1 µM | 
20 | CNC(=O)c1c(-c2ccc(F)cc2)oc2cc(N(CCCF)S(C)(=O)=O)c(-c3cccc(C(=O)NCC(C)(F)F)c3)cc12 [Compound 4019] | < 0.1 µM | 0.0098 µM

Row | SMILES | EC50 (read-out: EC50 1b (class)) | EC50 (read-out: EC50 (uM) 1b)
21 | CNC(=O)c1c(-c2ccc(F)cc2)oc2cc(N(CCCF)S(C)(=O)=O)c(-c3cccc(C(=O)NCC(F)F)c3)cc12 [Compound 4020] | < 0.1 µM | 
22 | CNC(=O)c1c(-c2ccc(F)cc2)oc2cc(N(CCCF)S(C)(=O)=O)c(-c3cccc(C(=O)N[C@@H](C)C(F)(F)F)c3)cc12 [Compound 4021] | < 0.1 µM | 
23 | CNC(=O)c1c(-c2ccc(F)cc2)oc2cc(N(CCCF)S(C)(=O)=O)c(-c3cccc(C(=O)NC4(C)CCC4)c3)cc12 [Compound 4022] | < 0.1 µM | 0.0077 µM
24 | CNC(=O)c1c(-c2ccc(F)cc2)oc2cc(N(CCCF)S(C)(=O)=O)c(-c3cccc(C(=O)NC4(C(F)(F)F)CC4)c3)cc12 [Compound 4023] | < 0.1 µM | 
25 | CNC(=O)c1c(-c2ccc(F)cc2)oc2cc(N(CCCF)S(C)(=O)=O)c(-c3cccc(C(=O)NC(C)(C)C#N)c3)cc12 [Compound 4024] | < 0.1 µM | 
26 | CNC(=O)c1c(-c2ccc(F)cc2)oc2cc(N(CCCF)S(C)(=O)=O)c(-c3cccc(C(=O)NC(C4CC4)C4CC4)c3)cc12 [Compound 4025] | < 0.1 µM | 
27 | CNC(=O)c1c(-c2ccc(F)cc2)oc2cc(N(CCCF)S(C)(=O)=O)c(-c3cccc(C(=O)NC(C)(C)C(C)(C)C)c3)cc12 [Compound 4026] | < 0.1 µM | 
28 | CNC(=O)c1c(-c2ccc(F)cc2)oc2cc(N(CCCF)S(C)(=O)=O)c(-c3cccc(C(=O)NC(C)(C)CCO)c3)cc12 [Compound 4027] | < 0.1 µM | 
29 | C#CC(CC)(CC)NC(=O)c1cccc(-c2cc3c(C(=O)NC)c(-c4ccc(F)cc4)oc3cc2N(CCCF)S(C)(=O)=O)c1 [Compound 4028] | < 0.1 µM | 0.0056 µM
30 | C#CC(C)(CC)NC(=O)c1cccc(-c2cc3c(C(=O)NC)c(-c4ccc(F)cc4)oc3cc2N(CCCF)S(C)(=O)=O)c1 (stereo not drawn) [Compound 4029] | < 0.1 µM | 0.0059 µM
31 | CNC(=O)c1c(-c2ccc(F)cc2)oc2cc(N(CCCF)S(C)(=O)=O)c(-c3cccc(C(=O)N[C@H](C)C(F)(F)F)c3)cc12 [Compound 4030] | < 0.1 µM | 
32 | CNC(=O)c1c(-c2ccc(F)cc2)oc2cc(NCCCF)c(-c3cccc(C(=O)NC(C)(C)C#N)c3)cc12 [Compound 5003] | < 0.1 µM | 
33 | CNC(=O)c1c(-c2ccc(F)cc2)oc2cc(NCCCF)c(-c3cccc(C(=O)NC(C)(C#N)C4CC4)c3)cc12 (stereo not drawn) [Compound 5004] | < 0.1 µM | 
34 | CNC(=O)c1c(-c2ccc(F)cc2)oc2cc(NCCCF)c(-c3cccc(C(=O)NC(C)(C)C(F)(F)F)c3)cc12 [Compound 5005] | < 0.1 µM | 
35 | CNC(=O)c1c(-c2ccc(F)cc2)oc2cc(NCCCF)c(-c3cccc(C(=O)NC(CF)(CF)CF)c3)cc12 [Compound 5006] | < 0.1 µM | 0.0094 µM
36 | CNC(=O)c1c(-c2ccc(F)cc2)oc2cc(N(C(F)F)S(C)(=O)=O)c(-c3cccc(C(=O)OC)c3)cc12 [Compound 6001] | < 0.1 µM | 
37 | CNC(=O)c1c(-c2ccc(F)cc2)oc2cc(N(C(F)F)S(C)(=O)=O)c(-c3cccc(C(=O)O)c3)cc12 [Compound 6002] | > 1 µM | > 10 µM
38 | CNC(=O)c1c(-c2ccc(F)cc2)oc2cc(N(C(F)F)S(C)(=O)=O)c(-c3cccc(C(=O)NC(C)(C)C(F)(F)F)c3)cc12 [Compound 6003] | < 0.1 µM | 0.0095 µM
39 | CNC(=O)c1c(-c2ccc(F)cc2)oc2cc(N(C(F)F)S(C)(=O)=O)c(-c3cccc(C(=O)NC(C)(C)C#N)c3)cc12 [Compound 6004] | < 0.1 µM | 
40 | CNC(=O)c1c(-c2ccc(F)cc2)oc2cc(N(C(F)F)S(C)(=O)=O)c(-c3cccc(C(=O)NC(CF)(CF)CF)c3)cc12 [Compound 6005] | < 0.1 µM | 
